Data published in US20260315468A1, “PHARMACEUTICAL COMPOSITION AND USE THEREOF” (SHANGHAI ALLIST PHARMACEUTICAL CO., LTD., priority 2022, published 2026).

Assays:
Experiment in all cases: Anti-proliferation, CellTiter-Glo Luminescent Cell Viability Assay
Assay type in all cases: cell-based
[1] = tested on: Ba/F3 EGFR-L861Q; conditions: Mus musculus, BaF3, 72 h, 3 days
Description: (§1) The objective of the test example 1 was to evaluate the anti-proliferation effect of Furmonertinib mesilate on 18 cell lines (Ba/F3 EGFR-G719S, Ba/F3 EGFR-S768I, Ba/F3 EGFR-G724S, Ba/F3 EGFR-L718Q, Ba/F3 EGFR-Del19/G724S, Ba/F3 EGFR-E709H, Ba/F3 EGFR-L747S, Ba/F3 EGFR-E709V, Ba/F3 EGFR-L747V, Ba/F3 EGFR-E709-710>D, Ba/F3 EGFR-E709A, Ba/F3 EGFR-Del19/C797S, Ba/F3 EGFR-L858R/C797S, Ba/F3 EGFR-L747S/G719A, Ba/F3-EGFR-L858R-L718V, Ba/F3-EGFR-L858R-L718Q, Ba/F3-EGFR-E709K-G719A, and Ba/F3 EGFR-L861Q) using standard CellTiter-Glo® Luminescent Cell Viability Assay. Further, AZD9291 was used as control compound.
(§2) Cell culture: Ba/F3 EGFR-G719S, Ba/F3 EGFR-S768I, Ba/F3 EGFR-G724S, Ba/F3 EGFR-L718Q, Ba/F3 EGFR-Del19/G724S, Ba/F3 EGFR-E709H, Ba/F3 EGFR-L747S, Ba/F3 EGFR-E709V, Ba/F3 EGFR-L747V, Ba/F3 EGFR-E709-710>D, Ba/F3 EGFR-E709A, Ba/F3 EGFR-Del19/C797S, Ba/F3 EGFR-L858R/C797S, Ba/F3 EGFR-L747S/G719A, Ba/F3-EGFR-L858R-L718V, Ba/F3-EGFR-L858R-L718Q, Ba/F3-EGFR-E709K-G719A, and Ba/F3 EGFR-L861Q engineered cells were obtained from Kyinno, and maintained at 37° C. with 5% CO2, in the RPMI1640 media supplemented with 10% fetal bovine serum.
(§3) The cells during the logarithmic growth period were harvested and counted by using blood counting chamber. The cell viability was over 90% which was determined by trypan blue assay. The cell concentration was adjusted with culture medium. 90 μl cell suspensions was added to two 96-well plates to obtain the final cell density of 3000 cells per well. The plates were incubated in humidified incubator at 37° C. with 5% CO2.
(§4) The solution of tested compounds (Furmonertinib mesilate and AZD9291) was diluted 1000-fold with DMSO. Then, said DMSO solution was diluted 100-fold with PBS (Phosphate Buffered Saline) to obtain 10× working solution. And 10× reference control solution was prepared by Phosphate Buffered Saline (PBS). 10 μl working solution (10×) was dispensed to each well (triplicate for each concentration). (The top concentration was 3160 nM, 3.16-fold dilution and 10 different concentrations. The final concentration of DMSO in culture medium was 0.1% [v/v]). The plate was cultured for 3 days.
(§5) On Day 3, CellTiter-Glo® reagent (a luciferase ATP bioluminescence detection reagent) was thawed, and then the cell plate was equilibrated at room temperature for approximately 30 minutes. 100 μl CellTiter-Glo® Reagent which was equal to the volume of cell culture medium present in each well was added. The obtained content was mixed for 5 minutes on an orbital shaker to induce cell lysis. The cell plate was incubated at room temperature for 20 minutes to stabilize luminescent signal. The luminescence was recorded by using Multi-mode Microplate Reader.
(§6) [formula] • blank control: medium control; • vehicle control: culture medium with 0.1% DMSO
(§7) The graphical curves were fitted using a nonlinear regression model with a sigmoidal dose response.

[2] = tested on: Ba/F3 EGFR-L718Q; conditions: Mus musculus, BaF3, 72 h, 3 days
Description: as §1, §2, §3, §4, §5, §6, §7

[3] = tested on: Ba/F3 EGFR-L747V; conditions: Mus musculus, BaF3, 72 h, 3 days
Description: as §1, §2, §3, §4, §5, §6, §7

[4] = tested on: Ba/F3-EGFR-L858R-L718Q; conditions: 72 h, 3 days
Description: as §1, §2, §3, §4, §5, §6, §7

[5] = tested on: Ba/F3 EGFR-E709H; conditions: Mus musculus, BaF3, 72 h, 3 days
Description: as §1, §2, §3, §4, §5, §6, §7

[6] = tested on: Ba/F3 EGFR-S768I; conditions: Mus musculus, BaF3, 72 h, 3 days
Description: as §1, §2, §3, §4, §5, §6, §7

[7] = tested on: Ba/F3-EGFR-L858R-L718V; conditions: 72 h, 3 days
Description: as §1, §2, §3, §4, §5, §6, §7

[8] = tested on: Ba/F3 EGFR-E709A; conditions: Mus musculus, BaF3, 72 h, 3 days
Description: as §1, §2, §3, §4, §5, §6, §7

[9] = tested on: Ba/F3 EGFR-L858R/C797S; conditions: Mus musculus, BaF3, 72 h, 3 days
Description: as §1, §2, §3, §4, §5, §6, §7

[10] = tested on: Ba/F3-EGFR-E709K-G719A; conditions: 72 h, 3 days
Description: as §1, §2, §3, §4, §5, §6, §7

[11] = tested on: Ba/F3 EGFR-L747S/G719A; conditions: Mus musculus, BaF3, 72 h, 3 days
Description: as §1, §2, §3, §4, §5, §6, §7

[12] = tested on: Ba/F3 EGFR-Del19/C797S; conditions: Mus musculus, BaF3, 72 h, 3 days
Description: as §1, §2, §3, §4, §5, §6, §7

[13] = tested on: Ba/F3 EGFR-Del19/G724S; conditions: Mus musculus, BaF3, 72 h, 3 days
Description: as §1, §2, §3, §4, §5, §6, §7

[14] = tested on: Ba/F3 EGFR-G724S; conditions: Mus musculus, BaF3, 72 h, 3 days
Description: as §1, §2, §3, §4, §5, §6, §7

[15] = tested on: Ba/F3 EGFR-E709-710 > D; conditions: Mus musculus, BaF3, 72 h, 3 days
Description: as §1, §2, §3, §4, §5, §6, §7

[16] = tested on: Ba/F3 EGFR-G719S; conditions: Mus musculus, BaF3, 72 h, 3 days
Description: as §1, §2, §3, §4, §5, §6, §7

[17] = tested on: Ba/F3 EGFR-L747S; conditions: Mus musculus, BaF3, 72 h, 3 days
Description: as §1, §2, §3, §4, §5, §6, §7

[18] = tested on: Ba/F3 EGFR-E709V; conditions: Mus musculus, BaF3, 72 h, 3 days
Description: as §1, §2, §3, §4, §5, §6, §7

## C=CC(=O)Nc1cc(Nc2nccc(-c3cn(C)c4ccccc34)n2)c(OC)cc1N(C)CCN(C)C [AZD9291, reference compound]
[1]
  IC50: 24.6 nM
[2]
  IC50: > 1000 nM
[3]
  IC50: 53.7 nM
[4]
  IC50: 942 nM
[5]
  IC50: 124 nM
[6]
  IC50: 85.5 nM
[7]
  IC50: 172 nM
[8]
  IC50: 64.2 nM
[9]
  IC50: 2190 nM
[10]
  IC50: 164 nM
[11]
  IC50: 92.1 nM
[12]
  IC50: 1980 nM
[13]
  IC50: 16.3 nM
[14]
  IC50: 73 nM
[15]
  IC50: 197 nM
[16]
  IC50: 55.4 nM
[17]
  IC50: 37.8 nM
[18]
  IC50: 47.6 nM
